The values that follow come from ChEMBL document CHEMBL5523769, “Discovery of Novel Nonpeptidic and Noncovalent Small Molecule 3CLpro Inhibitors as anti-SARS-CoV-2 Drug Candidate” (J Med Chem, 2024).

Activity calls are given as the source filed them. The rule behind the calls is not given here.

Assay [1] relates to SARS-CoV-2. Kind of assay: microbe, parasite or virus in culture. Particulars: Severe acute respiratory syndrome coronavirus 2, Delta, Vero C1008.
For assay [2], the system named is SARS-CoV-2. Kind of assay: microbe, parasite or virus in culture. The note with it: Severe acute respiratory syndrome coronavirus 2, Delta, Vero C1008. The source holds these as a separate data set.
Assay [3] has as its system SARS-CoV-2. The assay can be described thus: Antiviral activity against SARS-CoV-2 omicron BA.5 variant infected in K18-hACE2 transgenic mouse model assessed as log reduction in viral copies in lungs at 200 mg/kg, po pre-infected with virus for 2 hrs followed by twice daily compound administration and measured on day 2. It is filed as functional, Severe acute respiratory syndrome coronavirus 2. The note with it: time 2 day.

Assay [4] relates to SARS-CoV-2. The assay can be described thus: Antiviral activity against SARS-CoV-2 omicron BA.5 variant infected in K18-hACE2 transgenic mouse model assessed as log reduction in viral copies in lungs at 200 mg/kg, po pre-infected with virus for 2 hrs followed by twice daily compound administration and measured on day 4. It counts as functional, Severe acute respiratory syndrome coronavirus 2. The note with it: time 4 day.

Assay [5] concerns SARS-CoV-2. Kind of assay: Antiviral activity against SARS-CoV-2 omicron BA.5 variant infected in K18-hACE2 transgenic mouse model assessed as inhibition of viral replication at 100 mg/kg, po pre-infected with virus for 2 hrs followed by twice daily compound administration and measured on day 2 to 4. Particulars: Severe acute respiratory syndrome coronavirus 2, time 2-4 day. It is filed as functional, organism-based.

For assay [6], the system named is SARS-CoV-2. The assay can be described thus: Antiviral activity against SARS-CoV-2 omicron BA.5 variant infected in K18-hACE2 transgenic mouse model assessed as increase in body weight at 100 to 200 mg/kg, po pre-infected with virus for 2 hrs followed by twice daily compound administration and measured on day 4. Particulars: Severe acute respiratory syndrome coronavirus 2, dose 100-200 mg/kg, time 4.0 day. It counts as functional, organism-based.

Assay [7] relates to SARS-CoV-2. Kind of assay: Antiviral activity against SARS-CoV-2 omicron BA.5 variant infected in K18-hACE2 transgenic mouse model assessed as increase in body weight at 50 mg/kg, po pre-infected with virus for 2 hrs followed by twice daily compound administration and measured on day 4 in presence of nirmatrelvir. It is filed as functional, organism-based. Particulars: Severe acute respiratory syndrome coronavirus 2, time 4.0 day.

Assay [8] has as its system SARS-CoV-2. Kind of assay: Antiviral activity against SARS-CoV-2 omicron BA.5 variant infected in K18-hACE2 transgenic mouse model assessed as increase in body weight at 200 mg/kg, po pre-infected with virus for 2 hrs followed by twice daily compound administration and measured on day 4 in presence of ritonavir. Particulars: Severe acute respiratory syndrome coronavirus 2, time 4.0 day. It is filed as functional, organism-based.

As usually defined, the EC50 is the midpoint of the concentration-response curve. A low value points to greater potency. As for `O=C(N[C@H]1CCCC[C@H]1Nc1c(C(=O)N2CCOCC2)cc(Br)cc1[N+](=O)[O-])c1cc(=O)[nH]c2c(F)cccc12`, in the assay on SARS-CoV-2 [1], the EC50 worked out at 0.367 µM.
As for `COc1ccc2[nH]c(=O)cc(C(=O)N[C@H]3CCCC[C@H]3Nc3c(C(=O)N4CCOCC4)cc(C4CC4)cc3[N+](=O)[O-])c2c1`, a half-maximal effect in the assay on SARS-CoV-2 [1] (EC50) was put at 7.81 µM. This EC50 is about 21-fold higher than that of the compound before.
In the case of `O=C(c1cc(=O)[nH]c2ccccc12)N1CCN(c2ccc(Cl)c(Cl)c2)CC1CN1CCOCC1` (centres undefined), the EC50 in the assay with SARS-CoV-2 [2] and in the assay on SARS-CoV-2 [1] was 7.24 µM each time.
Take `CNC(=O)c1cc(C2CC2)cc([N+](=O)[O-])c1N[C@@H]1CCCC[C@@H]1NC(=O)c1cc(=O)[nH]c2ccccc12`: in the assay with SARS-CoV-2 [1], the EC50 came to 2.69 µM. This lies in the single-digit micromolar range.
Regarding `CNC(=O)c1cc(Br)cc([N+](=O)[O-])c1N[C@@H]1CCCC[C@@H]1NC(=O)c1cc(=O)[nH]c2c(F)cccc12`, the EC50 in the assay with SARS-CoV-2 [1] was determined as 0.346 µM.
Turning to `CN1CCN(C(=O)c2cc(Br)cc([N+](=O)[O-])c2N[C@@H]2CCCC[C@@H]2NC(=O)c2cc(=O)[nH]c3c(F)cccc23)CC1`, the entries for the “log(activity)” value in the assay on SARS-CoV-2 [3] and in the assay with SARS-CoV-2 [4] were 1.5 and 1, respectively. Also, the result in the assay with SARS-CoV-2 [5] and with SARS-CoV-2 [6] was Active. For the same compound, the EC50 with SARS-CoV-2 [1] was found to be 0.272 µM.
Take `CC(C)c1nc(CN(C)C(=O)N[C@H](C(=O)N[C@@H](Cc2ccccc2)C[C@H](O)[C@H](Cc2ccccc2)NC(=O)OCc2cncs2)C(C)C)cs1`: in the assay on SARS-CoV-2 [7], the result was Active.
As for `CC(C)(C)[C@H](NC(=O)C(F)(F)F)C(=O)N1C[C@H]2[C@@H]([C@H]1C(=O)N[C@H](C#N)C[C@@H]1CCNC1=O)C2(C)C`, the result in the assay with SARS-CoV-2 [8] was Active.
For the compound `O=C(NCCCC(F)(F)F)C1CN(c2ccc(Cl)c(Cl)c2)CCN1C(=O)c1cc(=O)[nH]c2ccccc12` (centres undefined), in the assay with SARS-CoV-2 [1], the EC50 is 3.95 µM.
Take `O=C(N[C@H]1CCCC[C@H]1Nc1c(C(=O)N2CCOCC2)cc(Br)cc1[N+](=O)[O-])c1cc(=O)[nH]c2ccccc12`: the EC50 in the assay on SARS-CoV-2 [1] was 3.36 µM. This EC50 and that of the compound before are within 1.5-fold of each other.
In the case of `O=C(N[C@H]1CCCC[C@H]1Nc1c(C(=O)N2CCOCC2)cc(C2CC2)cc1[N+](=O)[O-])c1cc(=O)[nH]c2ccccc12`, in the assay with SARS-CoV-2 [1], the EC50 was 4.46 µM. The EC50 values of the last two compounds are within 1.5-fold of each other.
For the compound `O=C(NCCC(F)(F)F)C1CN(c2ccc(Cl)c(Cl)c2)CCN1C(=O)c1cc(=O)[nH]c2ccccc12` (centres undefined), the EC50 in the assay on SARS-CoV-2 [1] came to 17.7 µM.
As for `CNC(=O)c1cc(Br)cc([N+](=O)[O-])c1N[C@@H]1CCCC[C@@H]1NC(=O)c1cc(=O)[nH]c2ccccc12`, in the assay with SARS-CoV-2 [1], the EC50 came to 0.849 µM.
Compound `CNC(=O)c1cc(Br)cc([N+](=O)[O-])c1N[C@@H]1CCCC[C@@H]1NC(=O)c1cc(=O)[nH]c2ccc(F)cc12` registered an EC50 with SARS-CoV-2 [1] of 2.44 µM. This EC50 lies about 2.9-fold higher than the previous one.
